{"source": "patent US11045480B2", "about": "“Anti-huLRRC15 antibody drug conjugates and methods for their use” (AbbVie Inc., priority 2015, dated 2021)", "key": {"[1]": {"test_system": "MC-38 mouse colorectal cancer", "assay": "MC-38 syngeneic tumor growth", "format": "in vivo", "procedure": "MC-38 mouse colorectal cancer cells (250,000) were implanted subcutaneously into C57BL/6 mice, and mice were randomized when the tumors reached ˜100 mm^3 and dosed with isotype antibodies or ADCs at 12 mg/kg intraperitoneally on a Q4D×6 (one dose given every 4 days for a total of 6 doses), while the anti-PD-1 antibody (“Anti-PD1 mAb”) was dosed intraperitoneally at 2 mg/kg Q4D×6 (one dose given every 4 days for a total of 6 doses)."}, "[2]": {"test_system": "EBC-1 (human squamous NSCLC) xenograft", "assay": "EBC-1 xenograft tumor growth", "format": "in vivo, mouse", "procedure": "For the experiments, five million cells (EBC-1) that were grown in vitro were inoculated subcutaneously per mouse into the right flank of female SCID-Beige mice. Tumors were size matched at ˜200 mm^3, and dosed intraperitoneally (IP) Q4D×6 (1 dose given every 4 days for a total of 6 doses) as shown in FIG. 13A. Measurements of the length (L) and width (W) of the tumors were taken via electronic caliper and the volume was calculated according to the following equation: V=L×W^2/2.\nFor this experiment, tumors were size matched at ˜200 mm^3, and dosed intraperitoneally (IP) Q7D×2 (1 dose given every 7 days for a total of 2 doses) as shown in FIG. 13C. […]\n5 million cells were implanted subcutaneously into SCID/Beige mice, and mice were randomized when tumor group mean volumes reached ˜200 mm^3.\nIn FIG. 20C, EBC1 cells (5 million) were implanted subcutaneously into SCID/Beige mice and mice were randomized when the tumors reached ˜200 mm^3 and dosed with biologics at 6 mg/kg intraperitoneally on a Q7D×2 (one dose given every 7 days for a total of 2 doses), while erlotinib was dosed orally daily for 10 days at 50 mg/kg, and carboplatin was dosed intraperitoneally Q4D×3 (one dose given every 4 days for a total of 3 doses) at 50 mg/kg.\nIn FIG. 21B, EBC-1 squamous NSCLC cells (5 million) were implanted subcutaneously into SCID/Beige mice, and mice were randomized when the tumors reached ˜200 mm^3 and dosed with biologics at 6 mg/kg intraperitoneally on a Q7D×2 (one dose given every 7 days for a total of 2 doses), while gemcitabine was dosed intraperitoneally at 100 mg/kg (Q3D×3) (one dose given every three days for 3 doses total)."}, "[3]": {"test_system": "HN5 (head and neck) xenograft", "assay": "HN5 xenograft tumor growth", "format": "in vivo, mouse", "details": "HN5, NSG mice; ADC 4.5 mg/kg IP Q4D×6; erlotinib 150 mg/kg orally daily ×10; cetuximab 3 mg/kg IP Q7D×3 (FIG. 20B)"}, "[4]": {"test_system": "SCC-15 head and neck cancer xenograft", "assay": "SCC-15 xenograft tumor growth", "format": "in vivo, mouse"}, "[5]": {"test_system": "NW231 breast cancer xenograft", "assay": "NW231 xenograft tumor growth", "format": "in vivo, mouse", "details": "NW231, SCID mice; biologics 12 mg/kg IP Q4D×6; doxorubicin 1 mg/kg IV days 0, 4, 8, 13, 18 (FIG. 20D)", "procedure": "In FIG. 20D, NW231 breast cancer cells (10 million) were implanted subcutaneously into SCID mice, and mice were randomized when the tumors reached ˜150 mm^3 and dosed with biologics at 12 mg/kg intraperitoneally on a Q4D×6 (one dose given every 4 days for a total of 6 doses), while doxorubicin was dosed intravenously at 1 mg/kg on days 0, 4, 8, 13 and 18."}, "[6]": {"test_system": "NCI-H1650 (NSCLC) xenograft", "assay": "NCI-H1650 xenograft tumor growth", "format": "in vivo, mouse", "procedure": "The potency of anti-huLRRC15 ADCs as compared to current standards of care was assessed in xenograft models with NCI-H1650 ([…]), HN5 (head and neck), EBC-1 (squamous NSCLC), NW231 (breast) and PANC1 (pancreatic) cancer cells. […] For FIG. 20A, NCI-H1650 cells (5 million cells) were implanted subcutaneously into SCID/Beige mice and tumors were randomized when they reached ˜200 mm^3 and dosed with biologics at 6 or 12 mg/kg intraperitoneally on a Q4D×6 (one dose given every 4 days for a total of 6 doses), while erlotinib was dosed orally daily for 10 days at 100 mg/kg, and carboplatin was dosed intraperitoneally Q4D×4 (one dose given every 4 days for a total of 4 doses) at 50 mg/kg.\nNCI-H1650 NSCLC cancer cells (5 million) were implanted subcutaneously into SCID/Beige mice, and mice were randomized when the tumors reached ˜200 mm^3 and dosed with biologics at 6 or 12 mg/kg intraperitoneally on a Q4D×6 (one dose given every 4 days for a total of 6 doses), while erlotinib was dosed orally daily at 100 mg/kg for 10 doses.\nNCI-H1650 NSCLC cancer cells (5 million) were implanted subcutaneously into SCID/Beige mice, and mice were randomized when the tumors reached ˜200 mm^3 and dosed on day 0 with isotype or ADC at 0.1, 0.3, or 0.6 mg/kg intraperitoneally.\nNCI-H1650 adeno NSCLC cells (5 million) were implanted subcutaneously into SCID/Beige mice, and mice were randomized when the tumors reached ˜225 mm^3 and dosed with ADC at 0.6 mg/kg or isotype antibody at 12 mg/kg intraperitoneally once on day 0."}, "[7]": {"details": "EBC1, SCID/Beige mice, biologics 6 mg/kg IP Q7D×2, erlotinib 50 mg/kg orally daily ×10, carboplatin 50 mg/kg IP Q4D×3 (FIG. 20C)"}, "[8]": {"details": "EBC-1, SCID-Beige mice, 6 mg/kg IP Q4D×6 (FIG. 13A)"}, "[9]": {"details": "EBC-1, ADC plus second agent of FIG. 21B (sentence: docetaxel; method and legend: gemcitabine)"}, "[10]": {"details": "SCC-15, SCID mice, ADCs 12 mg/kg IP Q7D×6, cetuximab 3 mg/kg IP Q7D×3 (FIG. 22B)"}, "[11]": {"details": "SCC-15, ADC 12 mg/kg IP Q7D×6 plus cetuximab 3 mg/kg IP Q7D×3 (FIG. 22B)"}, "[12]": {"details": "NCI-H1650, SCID/Beige mice, biologics 6 or 12 mg/kg IP Q4D×6, erlotinib 100 mg/kg orally daily ×10, carboplatin 50 mg/kg IP Q4D×4 (FIG. 20A, 22A)"}, "[13]": {"details": "NCI-H1650, ADC 6 or 12 mg/kg IP Q4D×6 plus erlotinib 100 mg/kg orally daily ×10 (FIG. 22A)"}}, "data": [{"substance": "huM25-vcMMAE-E2: huM25 conjugated with maleimidocaproyl val-cit PABA MMAE, preparation enriched in DAR2 by HIC", "values": [{"measurement": "single agent activity", "setting": "[1]; MC-38, C57BL/6 mice, ADC 12 mg/kg IP Q4D×6 (FIG. 22C)", "value": "did not show single agent activity"}, {"measurement": "TGImax, administered adjunctively with anti-PD-1 antibody", "setting": "[1]; MC-38, ADC 12 mg/kg IP Q4D×6 plus anti-PD-1 antibody 2 mg/kg IP Q4D×6 (FIG. 22C)", "value": 87, "unit": "%"}, {"measurement": "TGD", "setting": "[2]; [7]", "value": 129, "unit": "%"}, {"measurement": "TGImax", "setting": "[2]; [7]", "value": 92, "unit": "%"}, {"measurement": "maximum tumor growth inhibition (TGImax)", "setting": "[2]; [8]", "value": 97, "unit": "%"}, {"measurement": "tumor growth delay (TGD)", "setting": "[2]; [8]", "value": 305, "unit": "%"}, {"measurement": "TGD, single agent", "setting": "[2]; EBC-1, SCID/Beige mice, huM25-vcMMAE-E2 at 3 mg/kg (method: biologics 6 mg/kg IP Q7D×2), method: gemcitabine 100 mg/kg IP Q3D×3, result sentence names docetaxel (FIG. 21B)", "value": 144, "unit": "%"}, {"measurement": "TGD, used adjunctively", "setting": "[2]; [9]", "value": 348, "unit": "%"}, {"measurement": "TGImax, used adjunctively", "setting": "[2]; [9]", "value": 98, "unit": "%"}, {"measurement": "TGD", "setting": "[3]", "value": 194, "unit": "%"}, {"measurement": "TGImax", "setting": "[3]", "value": 96, "unit": "%"}, {"measurement": "TGD, single agent", "setting": "[4]; [10]", "value": 44, "unit": "%"}, {"measurement": "TGImax, single agent", "setting": "[4]; [10]", "value": 58, "unit": "%"}, {"measurement": "TGD, used adjunctively with cetuximab", "setting": "[4]; [11]", "value": 125, "unit": "%"}, {"measurement": "TGImax, used adjunctively with cetuximab", "setting": "[4]; [11]", "value": 87, "unit": "%"}, {"measurement": "TGImax", "setting": "[5]", "value": 89, "unit": "%"}, {"measurement": "TGD, single agent", "setting": "[6]; [12]", "value": 450, "unit": "%"}, {"measurement": "TGImax, single agent", "setting": "[6]; [12]", "value": 92, "unit": "%"}, {"measurement": "TGD, used adjunctively with erlotinib", "setting": "[6]; [13]", "value": "> 538", "unit": "%"}, {"measurement": "TGImax, used adjunctively with erlotinib", "setting": "[6]; [13]", "value": 92, "unit": "%"}]}]}
